SMILES strings stand for the structures.

This note sets out measurements from US20110070215A1 (priority 2009, published 2011).

The test system of this assay is DU-145 cells. Format: cell-based, human.

Regarding `C=C1[C@@H](C)[C@H]2[C@H](Cc3ccccc3)NC(=O)[C@]23[C@H](OC(C)=O)/C=C/[C@@](C)(O)C(=O)[C@@H](C)C/C=C/[C@H]3[C@@H]1O` [Cytochalasin-D], the “Relative Wound Density at 24 Hours, Mean” value came to 3.3 ± 0.2; the “Relative Wound Density at 24 Hours, Percent Relative to Media” value came to 4%; the “effect on cell migration” value is “did not migrate”.
